Here are results for three molecules from patent publication US20090312286A1, “DERIVATIVES OF 4-TRIMETHYLAMMONIUM-3-AMINOBUTYRATE AND 4-TRIMETHYLPHOSPHONIUM-3-AMINOBUTYRATE AS CPT-INHIBITORS” (SIGMA-TAU INDUSTRIE FARMACEUTICHE RIUNITE S.P.A., priority 2006, published 2009).

The target in test [1] is T1, CPT1 in rat mitochondria (liver) (Rattus norvegicus, UniProt P32198).
T1 construct: fresh mitochondrial preparations obtained from the liver or heart of Fischer rats; from tissue; host or cells: rat liver mitochondria (Fischer rats)
T1 sequence (P32198 1-773): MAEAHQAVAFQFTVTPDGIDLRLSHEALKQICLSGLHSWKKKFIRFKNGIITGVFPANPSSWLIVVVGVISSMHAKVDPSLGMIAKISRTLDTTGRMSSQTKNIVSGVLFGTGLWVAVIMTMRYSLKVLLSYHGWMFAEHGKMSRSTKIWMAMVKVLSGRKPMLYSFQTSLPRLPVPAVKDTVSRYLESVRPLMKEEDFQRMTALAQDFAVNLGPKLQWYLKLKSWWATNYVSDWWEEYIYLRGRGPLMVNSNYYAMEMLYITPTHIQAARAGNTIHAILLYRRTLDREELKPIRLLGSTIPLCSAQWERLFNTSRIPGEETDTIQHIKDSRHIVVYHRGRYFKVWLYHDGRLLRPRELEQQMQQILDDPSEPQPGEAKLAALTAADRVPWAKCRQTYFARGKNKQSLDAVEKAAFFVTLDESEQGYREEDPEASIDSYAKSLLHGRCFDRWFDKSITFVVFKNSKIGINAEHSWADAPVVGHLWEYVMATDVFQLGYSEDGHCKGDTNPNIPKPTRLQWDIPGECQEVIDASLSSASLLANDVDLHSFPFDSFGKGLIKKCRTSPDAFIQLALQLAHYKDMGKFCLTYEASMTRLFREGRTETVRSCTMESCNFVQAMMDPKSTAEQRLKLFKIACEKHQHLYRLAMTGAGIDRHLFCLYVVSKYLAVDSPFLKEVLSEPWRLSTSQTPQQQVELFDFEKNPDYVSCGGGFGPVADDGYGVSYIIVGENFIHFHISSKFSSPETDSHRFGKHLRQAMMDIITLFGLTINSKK
Description: In vitro inhibition of CPT I, rat liver mitochondria. Conditions: for Ratio: IC50 (heart) / IC50 (liver); for IC50: CPT1, liver mitochondria of Fischer rats, 50 μM palmitoyl-CoA, 10 mM L-carnitine, 37° C., 1 minute. The format is biochemical. The procedure: 100 μl of a mitochondrial suspension, containing 50 μM of [^14C] palmitoyl-CoA (spec.act. 10000 dpm/mole) and 10 mM of L-carnitine, are incubated at 37° C. in the presence of stepped concentrations (0-3 mM) of product under examination.
(§1) The IC50 is then determined.

Test [2] has as its system β-hydroxybutyrate production. Description: Inhibition of ketone bodies production in vivo in fasted rats. Also on record: species or system rat. The conditions noted are these: for ED50: Rattus norvegicus, single oral treatment, calculated on AUC of β-hydroxybutyrate from time 0 to 9 hours; for reduction of β-hydroxybutyrate levels / time to reach minimum β-hydroxybutyrate values: rats fasted 17 hours; for reduction of β-hydroxybutyrate levels: single oral dose equimolar to 10 mg/Kg of ST1326, measured at 3 and 6 hours; for time to reach minimum β-hydroxybutyrate values: single oral dose equimolar to 10 mg/Kg of ST1326, values stable for additional 3 hours. On the procedure: The compounds were administered per os at 9:00 after 17 hours of fasting (n=5) at doses equimolar to 10 mg/kg of ST1326, which is used as reference compound.
The inhibition of CPT and consequently of β-hydroxybutyrate production operated by ST2425 and ST2452 was evaluated in vivo in rats fasted from 17 hours, at doses equimolar to 10 mg/Kg of ST1326 used as reference compound. β-hydroxybutyrate levels were measured at 3 and 6 hours from single oral treatment.
For compound ST2425, inhibition of ketone bodies production was also evaluated at the dosages of 0, 1, 3, 7, 10 mg/kg in rats fasted for 16 hours, following the reduction of β-hydroxybutyrate for 9 hours after single oral treatment.

Another test has as its system db/db mice. Description: Antihyperglycemic activity in db/db mice. It counts as in vivo, mouse. The conditions noted are these: vs control. The procedure: ST2425 and ST2452 were administered to db/db mice for 12 days at 30 mg/kg/day, using ST1326 at a higher dose (80 mg/kg/day) as reference compound. At the end of the treatment, serum glucose levels were evaluated after 16 hours fasting and 2 hours from last administration.

For another test, the system named is Sprague Dawley rats. Description: Effect on food intake of intranasal administration in normal rats. It counts as in vivo. The conditions noted are these: intranasal 320 μg/40 μL/rat for 3 days, starting from the day after the second treatment, FIG. 3. On the procedure:
FIG. 3 reports the food intake (expressed as g/kg b.w.) in Sprague Dawley rats, treated intranasally for 3 days with ST2425 (320 μg/40 μl/rat) equally subdivided in the two nostrils. (Mean±S.D. (n=5). One way ANOVA post-hoc test SNK *p≦0.05 vs Control)
To test the activity on food consumption of the compounds of the present invention after intranasal administration, ST2425 was given to normally-fed Sprague Dawley rats (320 μg/40 μL/rat, in citrate buffer 10 mmol/L pH 5.0, equally subdivided into the two nostrils) 2 h before the dark cycle. The compound was administered for 3 days (starting from day 0) and food consumption was measured every time for the following 24 h. Five rats were considered for each group.

For test [3], the target named is T2, CPT1 in rat mitochondria (heart) (Rattus norvegicus, UniProt Q63704).
T2 construct: fresh mitochondrial preparations obtained from the liver or heart of Fischer rats; from tissue; host or cells: rat heart mitochondria (Fischer rats)
T2 sequence (Q63704 1-772): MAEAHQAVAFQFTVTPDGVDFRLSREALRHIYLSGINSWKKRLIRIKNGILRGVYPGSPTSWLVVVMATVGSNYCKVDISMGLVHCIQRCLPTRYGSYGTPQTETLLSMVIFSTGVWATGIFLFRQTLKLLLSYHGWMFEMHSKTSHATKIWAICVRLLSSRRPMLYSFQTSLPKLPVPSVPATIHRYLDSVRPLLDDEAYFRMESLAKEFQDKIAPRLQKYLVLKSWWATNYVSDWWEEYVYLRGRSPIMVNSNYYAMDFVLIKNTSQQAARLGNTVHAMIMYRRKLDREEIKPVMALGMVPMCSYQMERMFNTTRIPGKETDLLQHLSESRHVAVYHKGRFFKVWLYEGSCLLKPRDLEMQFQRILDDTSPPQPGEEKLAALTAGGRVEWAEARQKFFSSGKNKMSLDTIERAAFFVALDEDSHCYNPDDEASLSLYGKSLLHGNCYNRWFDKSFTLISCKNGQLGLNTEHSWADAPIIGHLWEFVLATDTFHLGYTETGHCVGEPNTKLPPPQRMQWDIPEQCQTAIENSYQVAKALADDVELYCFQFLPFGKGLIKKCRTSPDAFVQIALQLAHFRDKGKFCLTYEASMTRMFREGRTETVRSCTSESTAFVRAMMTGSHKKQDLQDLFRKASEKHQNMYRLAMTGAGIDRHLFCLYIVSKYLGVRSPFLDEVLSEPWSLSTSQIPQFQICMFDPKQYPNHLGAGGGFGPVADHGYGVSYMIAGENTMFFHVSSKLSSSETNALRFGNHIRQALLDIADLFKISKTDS
Put plainly: In vitro inhibition of CPT I, rat heart mitochondria. It counts as biochemical. The conditions noted are these: CPT1, heart mitochondria of Fischer rats, 50 μM palmitoyl-CoA, 10 mM L-carnitine, 37° C., 1 minute. On the procedure: The inhibition of CPT was evaluated on fresh mitochondrial preparations obtained from the liver or heart of Fischer rats, fed normally; the mitochondria taken from the liver or heart are suspended in a 75 mM sucrose buffer, EGTA 1 mM, pH 7.5. 100 μl of a mitochondrial suspension, containing 50 μM of [^14C] palmitoyl-CoA (spec.act. 10000 dpm/mole) and 10 mM of L-carnitine, are incubated at 37° C. in the presence of stepped concentrations (0-3 mM) of product under examination.
as §1

Another test concerns C57BL/6J mice. Description: Effect on food intake and body weight of repeated intracerebroventricular administration. The format is in vivo, mouse. Conditions: for Mice weight / 24 hours food intake: C57BL6/J mice, Mean ± S.D. On the procedure:
Two groups of 8 C57BL/6J mice each (ST2425 and Control) were injected icv (3 μL) with 250 pmoles (0.113 μg) of ST2425 dissolved in RPMI 1640 (vehicle), for 4 days (starting from day 0). The animals were slightly confused by isofluorane anestesia. The head was positioned in an apparatus used to reveal a “virtual bregma” without opening the skin. The injection was performed with a syringe at 3.5 mm of depth, using the following coordinates from Bregma: 1 mm on the left of the midsagittal suture and 3 mm posterior (lateral ventricle). The animals were treated at 5:00 p.m. and food intake was monitored at 8:00 a.m. of the day after. Starting from the day after the first treatment, food was removed from 8:00 a.m. to 5:00 p.m.
Statistical analysis was performed using two way repeated measures ANOVA followed by Student, Newman, Keuls test as post-hoc analysis.

Where [4] appears, read: day 1, icv 250 pmoles for 4 days.
[5] abbreviates: day 2, icv 250 pmoles for 4 days.
Where [6] appears, read: day 3, icv 250 pmoles for 4 days.
Setting [7] is: day 4, icv 250 pmoles for 4 days.
[8] abbreviates: days 3 and 4, statistically significant.
[9] abbreviates: over the experiment, icv 250 pmoles for 4 days.

The term ED50 denotes the dose that gives a 50% effect, or the effect in half of the subjects. Turning to `CCCCCCCCCCCCCCNC(=O)N[C@H](CC(=O)[O-])C[N+](C)(C)C` [ST1326, R-4-trimethyl ammonium-3-(tetradecylcarbamoyl)-aminobutyrate, reference compound], in test [1], the Ratio is given as 135. Also, the ED50 in test [2] (rats fasted 16 hours) was 14.5 mg/kg. For the same molecule, the “reduction of glucose levels” value in the test on db/db mice (80 mg/kg/day for 12 days) amounted to 26%.

The term IC50 denotes the concentration at which inhibition is half-maximal. A lower IC50 goes with inhibition by little substance. As for `CCCCCCOc1cccc(OCCCCNC(=O)N[C@H](CC(=O)[O-])C[N+](C)(C)C)c1` [ST2425, (R)-4-trimethylammonium-3-[[4-[(3-hexyloxy)-phenoxy]butyl]carbamoyl]-amino-butyrate], the “food consumption with respect to controls” value with Sprague Dawley rats is recorded as “significant reduction of food consumption”. Moreover, the IC50 was 0.27 µM in test [1] and 31.6 µM in test [3]. Moreover, the Ratio in test [1] is recorded as 117. In test [2] (rats fasted 16 hours), the ED50 was 3.7 mg/kg. In addition, the “effect on ketone bodies levels, dose relation” value in test [2] (fasted rats, FIG. 2) is listed as “dose-related effect”. The “onset of action on ketone bodies levels” value in test [2] (rats fasted 16 hours, single oral treatment 1-10 mg/kg, FIG. 2) is recorded as “faster onset of action”. The “reduction of β-hydroxybutyrate levels” value in test [2] was “higher and faster with respect to ST1326”. Further, the “time to reach minimum β-hydroxybutyrate values” in test [2] turned out to be 3 h. Moreover, the “reduction of glucose levels” value in the test on db/db mice (30 mg/kg/day for 12 days) was found to be 41%. Further, the Mice weight turned out to be 22.2 ± 0.91 g in the test on C57BL/6J mice (day 0, icv 250 pmoles for 4 days); 21.2 ± 0.96 g in the test with C57BL/6J mice (setting [4]); 20.5 ± 1.14 g in the test on C57BL/6J mice (setting [5]); 20.0 ± 0.69 g with C57BL/6J mice (setting [6]); 20.1 ± 0.64 g with C57BL/6J mice (setting [7]). The “24 hours food intake” value with C57BL/6J mice (setting [4]) is 3.15 ± 0.61 g; with C57BL/6J mice (setting [5]), 3.31 ± 0.70 g; with C57BL/6J mice (setting [6]), 3.35 ± 0.73 g; in the test on C57BL/6J mice (setting [7]) it was 3.55 ± 0.63 g. In addition, the “change of mice weight” value with C57BL/6J mice (day 2, statistically significant) is on record as −5%; with C57BL/6J mice (setting [8]) it was −10%. Also, in the test on C57BL/6J mice (setting [8]), the “reduction of food intake” value is listed as “about 30%”. Also, in the test with C57BL/6J mice (setting [9]), the “change of food consumption with respect to the control group” value was −25%. In addition, the “change of mice weight with respect to the control group” value in the test with C57BL/6J mice (setting [9]) is −7%.

Take `CCCCCCOc1cccc(OCCCCNC(=O)N[C@H](CC(=O)[O-])C[P+](C)(C)C)c1` [ST2452, (R)-4-trimethylphosphonium-3-[[4-[(3-hexyloxy)phenoxy]butyl]carbamoyl]-amino-butyrate]: in test [1], half-maximal inhibition (IC50) was put at 0.12 µM and the Ratio is listed as 478. In addition, the midpoint of inhibition in test [3], the IC50, lay at 57.3 µM. For the same molecule, in test [2], the “reduction of β-hydroxybutyrate levels” value was “higher and faster with respect to ST1326”; the “time to reach minimum β-hydroxybutyrate values” was 3 h. Moreover, the “reduction of glucose levels” value in the test with db/db mice (30 mg/kg/day for 12 days) was 30%.
